{"source": "patent US6030961A", "about": "“Oxyalkylene phosphate compounds and uses thereof” (Bar-Ilan Research & Development Co., Ltd., priority 1997, dated 2000)", "key": {"[1]": {"test_system": "pancreatic cell line, BxPC-3", "test": "Colony-forming assay, 24 hour exposure", "type": "cell-based, human", "details": "24 hour treatment", "description": "The effect of 24 hour exposure to BODP or AB was determined by a colony-forming assay on the pancreatic cell line, BxPC-3, which is a primary adenocarcinoma (ACTTnr:CRL-1687). Freshly trypsinized cells were plated at 500 cells/dish in 60 mm^2 tissue culture dishes with the indicated concentration of each compound and incubated for 24 hours at 37° C. in 5% CO2 /air atmosphere. The cultures were washed with PBS, fresh medium was added, and the cultures were incubated for 7-12 days to allow the formation of colonies. Colonies were fixed with methanol, stained with Giemsa and counted. All incubations were performed in triplicate."}, "K562 cells [2]": {"test_system": "K562 cells", "test": "Hb-containing K562 cells by benzidine staining", "type": "cell-based", "details": "for extent of differentiation, dose dependence: hemoglobin accumulation, K562"}, "K562 cells [3]": {"test_system": "K562 cells", "test": "Total Hb content of K562 cultures by HPLC", "type": "cell-based", "details": "molar basis vs AB; FIG. 5", "protocol": "(2) Quantitative measurement of fetal hemoglobin (HbF) in K562 culture or human erythroid cultures was determined by ion-exchange high pressure liquid chromatography (HPLC) as described by Fibach et al., Blood 81:1630-1635, 1993.\nK562 cells: K562 is an erythroblast cell line (obtained from the ATCC, Rockville, Md.) that develops some properties of erythroid, megakaryocyte or monocyte cells, depending on the specific stimulus, when induced by different chemicals. K562 cells were grown in RPMI medium with 10% FCS, supplemented with 2 mM glutamine. Cells were incubated at 37° C. in a humidified, 5% CO2 incubator."}, "SMS-KCN [4]": {"test_system": "SMS-KCN", "description": "(§1) The cell lines listed in Table 2 were grown to 70-80% confluence in complete medium (RPMI 1640 containing 10% fetal calf serum (FCS), 100 IU penicillin, 100 μg/mL streptomycin and 2 mM L-glutamine). Cells were harvested, washed in complete medium and counted. Cell viability was determined by trypan blue exclusion. The cells were placed into soft agar (0.12% in media) and plated at 5,000 viable cells per well onto an agarose underlayer (0.4%) in 24-well plates. After overnight culture, AB or BODP was added at the indicated concentration. Control cells received media alone. As a control for cell death, cells were treated with a superlethal dose of 10 μg/ml of cisplatin. The dosage of AB or BODP which inhibited fifty percent or ninety percent of cell proliferation (IC50 or IC90 respectively) was calculated using the Chou Analysis' Median Effective Dose equation.\n(§2) Clonogenicity is determined as the percentage of clones in treated cultures relative to clones in mediumun-treated control cultures."}, "NGP": {"test_system": "NGP", "test": "Clonogenicity (soft agar) of established tumor cell lines, NGP", "description": "as §1, §2"}, "NBAS-5": {"test_system": "NBAS-5", "test": "Clonogenicity (soft agar) of established tumor cell lines, NBAS-5", "description": "as §1, §2"}, "IMR-32": {"test_system": "IMR-32", "test": "Clonogenicity (soft agar) of established tumor cell lines, IMR-32", "description": "as §1, §2"}, "LA1-5S": {"test_system": "LA1-5S", "test": "Clonogenicity (soft agar) of established tumor cell lines, LA1-5S", "description": "as §1, §2"}, "SK-N-SH": {"test_system": "SK-N-SH", "test": "Clonogenicity (soft agar) of established tumor cell lines, SK-N-SH", "description": "as §1, §2"}, "SK-N-MC": {"test_system": "SK-N-MC", "test": "Clonogenicity (soft agar) of established tumor cell lines, SK-N-MC", "description": "as §1, §2"}, "NBL-W-N": {"test_system": "NBL-W-N", "test": "Clonogenicity (soft agar) of established tumor cell lines, NBL-W-N", "description": "as §1, §2"}, "SMS-KAN": {"test_system": "SMS-KAN", "test": "Clonogenicity (soft agar) of established tumor cell lines, SMS-KAN", "description": "as §1, §2"}, "human tumor cell lines": {"test_system": "human tumor cell lines", "test": "Clonogenicity of established tumor cell lines, summary over cell lines", "description": "as §1, §2"}, "[5]": {"details": "U.S. Pat. No. 5,200,553; Nudelman et al.; cited from earlier work"}, "neoplastic cells": {"test_system": "neoplastic cells", "details": "in vitro; cited from earlier work"}, "nuclear deacetylase(s)": {"test_system": "nuclear deacetylase(s)", "details": "cited from earlier work"}, "B16 melanoma": {"test_system": "B16 melanoma", "details": "cited from earlier work"}, "[6]": {"test_system": "HL-60 promyelocytic leukemia", "details": "cited from earlier work"}, "cancer patients": {"test_system": "cancer patients", "details": "cited from earlier work"}, "[7]": {"test_system": "expression of transfected DNA", "details": "cited from earlier work"}, "[8]": {"details": "cited from earlier work"}, "SMS-KCN [9]": {"test_system": "SMS-KCN", "test": "cells", "details": "Homo sapiens", "description": "as §1, §2"}, "[10]": {"test_system": "β-thalassemia and sickle-cell anemia patients", "details": "cited from earlier work"}, "[11]": {"test_system": "reporter gene in primary and immortalized cell lines", "details": "cited from earlier work"}, "[12]": {"test_system": "human colon carcinoma, leukemia and retinoblastoma cell lines", "details": "in vitro; cited from earlier work"}}, "note": "pIC50: −log10 of the molar value. Entries after “also recorded” stand apart in the source; their conditions may differ. Like-named read-outs stand apart in the source and are kept apart here.", "data": [{"molecule": "CCCC(=O)OCOP(=O)(OCC)OCC", "note": "[BODP, butyroyloxymethyl diethyl phosphate]", "values": [{"measurement": "concentration causing complete inhibition", "setting": "[1]", "result": "above 50 μM"}, {"measurement": "growth inhibition, dose dependence", "setting": "[1]", "result": "dose-ependent growth inhibition"}, {"measurement": "extent of differentiation, dose dependence", "setting": "K562 cells [2]", "result": "directly related to the drug dose"}, {"measurement": "proportion of Hb-containing cells per total cell population", "setting": "K562 cells [2]; molar basis vs AB, 5 days exposure, FIG. 4", "result": "higher proportion of Hb-containing cells"}, {"measurement": "total Hb content of the cultures", "setting": "K562 cells [3]", "result": "higher activity in inducing erythroid differentiation"}, {"measurement": "pIC50", "setting": "SMS-KCN [4]", "result": 4.27}, {"measurement": "Ratio AB/BODP IC50", "setting": "SMS-KCN [4]", "result": 34.7}, {"measurement": "increase of CD11b expression over untreated cells", "setting": "HL-60 cells; 40 μM, four days, 5760 min", "result": 7, "unit": "fold"}, {"measurement": "differentiation induction, in words", "setting": "HL-60 cells; BODP vs AB", "result": "more active differentiation inducer compared to AB"}, {"measurement": "pIC50", "setting": "NGP", "result": 4.77}, {"measurement": "IC90", "setting": "NGP", "result": 49, "unit": "µM"}, {"measurement": "Ratio AB/BODP IC50", "setting": "NGP", "result": 11.6}, {"measurement": "Ratio AB/BODP IC90", "setting": "NGP", "result": 33.1}, {"measurement": "pIC50", "setting": "NBAS-5", "result": 4.68}, {"measurement": "IC90", "setting": "NBAS-5", "result": 71, "unit": "µM"}, {"measurement": "Ratio AB/BODP IC50", "setting": "NBAS-5", "result": 42}, {"measurement": "Ratio AB/BODP IC90", "setting": "NBAS-5", "result": 183.5}, {"measurement": "pIC50", "setting": "IMR-32", "result": 4.46}, {"measurement": "IC90", "setting": "IMR-32", "result": 88, "unit": "µM"}, {"measurement": "Ratio AB/BODP IC50", "setting": "IMR-32", "result": 25.2}, {"measurement": "Ratio AB/BODP IC90", "setting": "IMR-32", "result": 40.5}, {"measurement": "pIC50", "setting": "LA1-5S", "result": 4.42}, {"measurement": "IC90", "setting": "LA1-5S", "result": 105, "unit": "µM"}, {"measurement": "Ratio AB/BODP IC50", "setting": "LA1-5S", "result": 42.8}, {"measurement": "Ratio AB/BODP IC90", "setting": "LA1-5S", "result": 25.5}, {"measurement": "pIC50", "setting": "SK-N-SH", "result": 4.82}, {"measurement": "IC90", "setting": "SK-N-SH", "result": 44, "unit": "µM"}, {"measurement": "Ratio AB/BODP IC50", "setting": "SK-N-SH", "result": 66.5}, {"measurement": "Ratio AB/BODP IC90", "setting": "SK-N-SH", "result": 77.2}, {"measurement": "pIC50", "setting": "SK-N-MC", "result": 4.43}, {"measurement": "IC90", "setting": "SK-N-MC", "result": 145, "unit": "µM"}, {"measurement": "Ratio AB/BODP IC50", "setting": "SK-N-MC", "result": 5.8}, {"measurement": "Ratio AB/BODP IC90", "setting": "SK-N-MC", "result": 9.1}, {"measurement": "pIC50", "setting": "NBL-W-N", "result": 4.42}, {"measurement": "IC90", "setting": "NBL-W-N", "result": 96, "unit": "µM"}, {"measurement": "Ratio AB/BODP IC50", "setting": "NBL-W-N", "result": 12.9}, {"measurement": "Ratio AB/BODP IC90", "setting": "NBL-W-N", "result": 32}, {"measurement": "pIC50", "setting": "SMS-KAN", "result": 4.35}, {"measurement": "IC90", "setting": "SMS-KAN", "result": 128, "unit": "µM"}, {"measurement": "Ratio AB/BODP IC50", "setting": "SMS-KAN", "result": 25.3}, {"measurement": "Ratio AB/BODP IC90", "setting": "SMS-KAN", "result": 16.2}, {"measurement": "inhibition of cell proliferation, dose dependence", "setting": "human tumor cell lines", "result": "inhibit cell proliferation in a dose-dependent manner"}, {"measurement": "growth inhibition / clonogenicity inhibition potency, in words", "setting": "human tumor cell lines; BODP vs AB", "result": "more potent growth inhibitor than AB; also recorded: significantly more potent tumor cell clonogenicity inhibitor than AB"}, {"measurement": "sensitivity of the cells to BODP compared with AB", "setting": "human tumor cell lines; BODP vs AB", "result": "at least an order of magnitude more sensitive"}, {"measurement": "ratio of IC50 AB:IC50 BODP, median value", "setting": "human tumor cell lines; median over cell lines", "result": 25.2}, {"measurement": "ratio of IC90 AB:IC90 BODP, median value", "setting": "human tumor cell lines; median over cell lines", "result": 28.75}]}, {"molecule": "CCCC(=O)OCOC(=O)C(C)(C)C", "note": "[AN-9, pivaloyloxymethyl butyrate]", "values": [{"measurement": "activity among butyric acid prodrugs", "setting": "[5]", "result": "most active"}]}, {"molecule": "CCCC(=O)O", "note": "[BA, Butyric acid]", "values": [{"measurement": "differentiating and antiproliferative activity", "setting": "neoplastic cells", "result": "potent differentiating and antiproliferative agent"}, {"measurement": "effect on nuclear deacetylase(s) and histone acetylation", "setting": "nuclear deacetylase(s)", "result": "inhibition of nuclear deacetylase(s), resulting in hyperacetylation of histones H3 and H4"}, {"measurement": "expression of c-myc and H-ras oncogenes", "setting": "B16 melanoma", "result": "decrease in the expression of c-myc and H-ras oncogenes"}, {"measurement": "expression of c-myc", "setting": "[6]", "result": "decrease"}, {"measurement": "clinical efficacy in cancer patients", "setting": "cancer patients; BA and BA salts", "result": "minimal or transient efficacy"}, {"measurement": "odor in patients", "setting": "cancer patients; patients receiving BA", "result": "unpleasant odor"}, {"measurement": "expression of transfected DNA", "setting": "[7]", "result": "increase the expression of transfected DNA"}, {"measurement": "half-life in vivo", "setting": "[8]", "result": "very short half-lives in vivo"}, {"measurement": "metabolism", "setting": "[8]; in vivo", "result": "metabolized rapidly"}]}, {"molecule": "CCCC(=O)O", "note": "[AB, arginine butyrate, reference compound]", "values": [{"measurement": "growth inhibition at 100 μM", "setting": "[1]; 100 μM", "result": "did not cause complete growth inhibition"}, {"measurement": "extent of differentiation, dose dependence", "setting": "K562 cells [2]", "result": "directly related to the drug dose"}, {"measurement": "increase in CD11b at the same concentration", "setting": "HL-60 cells; 40 μM", "result": "no increase in CD11b"}, {"measurement": "expression of CD11b", "setting": "HL-60 cells; 800 μM", "result": 12, "unit": "%"}, {"measurement": "pIC50", "setting": "SMS-KCN [9]", "result": 2.73}, {"measurement": "clinical efficacy", "setting": "[10]; clinical trials", "result": "moderate efficacy"}, {"measurement": "side effects", "setting": "[10]; β-thalassemia and sickle-cell anemia patients", "result": "hypokalemia, headache, nausea and vomiting"}, {"measurement": "pIC50", "setting": "NGP; Homo sapiens", "result": 3.71}, {"measurement": "IC90", "setting": "NGP; Homo sapiens", "result": 1620, "unit": "µM"}, {"measurement": "inhibition of cell proliferation, dose dependence", "setting": "human tumor cell lines", "result": "inhibit cell proliferation in a dose-dependent manner"}]}, {"molecule": "CCCC(=O)OCC(COC(=O)CCC)OC(=O)CCC", "note": "[Tributyrin]", "values": [{"measurement": "expression of a reporter gene", "setting": "[11]", "result": "enhance the expression of a reporter gene"}]}, {"molecule": "CCCC(=O)[O-].[Na+]", "note": "[SB, sodium butyrate]", "values": [{"measurement": "apoptosis", "setting": "[12]", "result": "produce apoptosis in vitro"}]}]}
